From patent publication US8084016B2, “Measurement of biosynthesis and breakdown rates of biological molecules that are inaccessible or not easily accessible to direct sampling, non-invasively, by label incorporation into metabolic derivatives and catabolitic products” (The Regents of the University of California, priority 2002, dated 2011)

What was measured:
muscle myosin = experiment: Incorporation of ^2H from ^2H2O into urinary 3-methyl-histidine (muscle myosin biosynthesis); format: in vivo; settings: human subjects, intake of ^2H2O for 4-8 weeks
Source text: An individual undergoing a physical training program or medical therapeutic regimen intended to increase muscle mass by increasing muscle myosin biosynthesis (e.g., an athlete; an elderly person receiving physical therapy after a stroke; a patient with cachexia related to cancer or AIDS who is receiving nutritional or anabolic agent therapy) is given a labeled precursor that is incorporated into the body's proteins during biosynthesis. […] […] […] Total urinary amino acids are isolated with an SPE column. The amino acids are derivatized for gas chromatographic/mass spectrometric analysis. […] The derivatized amino acids are injected into a gas chromatograph/mass spectrometer (e.g., HP 5973 instrument), using, e.g., a DB-225 column. The mass spectrum of the 3-methyl histidine peak is collected while monitoring mass isotopomers at m/z 267 and 268 (parent and M+1 ions, respectively). Relative abundances of the above mass isotopomers are quantified in samples and compared to unlabeled standards ([…] 267+268]=0.1200 in samples and 0.0960 in standards). The proportion of labeled:unlabeled molecules present in the sample is calculated for 3-methylhistidine using MIDA.

[1] = Toxicity observation during maintained body water enrichment with ^2H2O; format: in vivo; settings: levels maintained for weeks or months; >100 human subjects; rapid changes in body water enrichment prevented
Source text: Relatively high body water enrichments of ^2H2O (e.g., 1-10% of the total body water is labeled) may be achieved using the techniques of the invention. This water enrichment is relatively constant and stable as these levels are maintained for weeks or months in humans and in experimental animals without any evidence of toxicity (FIGS. 3-5). This finding in a large number of human subjects (>100 people) is contrary to previous concerns about vestibular toxicities at high doses of ^2H2O. Applicants have discovered that as long as rapid changes in body water enrichment are prevented (e.g., by initial administration in small, divided doses), high body water enrichments of ^2H2O can be maintained with no toxicities. For example, the low expense of commercially available ^2H2O allows long-term maintenance of enrichments in the 1-5% range at relatively low expense (e.g., calculations reveal a lower cost for 2 months labeling at 2% ^2H2O enrichment, and thus 7-8% enrichment in the alanine precursor pool (FIGS. 6A-B), than for 12 hours labeling of ^2H-leucine at 10% free leucine enrichment, and thus 7-8% enrichment in leucine precursor pool for that period).

[2] = Body water ^2H2O enrichment during oral ^2H2O intake; format: in vivo, human

Structure (SMILES) | k: replacement rate constant of 3-methyl-histidine (muscle myosin) [day⁻¹] | toxicity at high body water enrichments of ^2H2O [1] | stability of ^2H2O enrichment in body water (precursor pool) ([2]; human subjects drank 50-100 ml ^2H2O daily for 10-12 weeks (FIG. 4)) | ^2H2O (%): body water enrichment ([2]; human subjects, intake of ^2H2O for 4-8 weeks) [%]
Cn1cncc1C[C@H](N)C(=O)O [3-methyl-histidine] | 0.037 |  |  | 
[2H]O[2H] [^2H2O] |  | no toxicities | stable over a period of weeks | 1.8
